Measurements published in patent publication US5521156A, “Cyclic neurokinin A antagonists” (priority 1994, dated 1996).
Where a SMILES comes first, the peptide text is derived from it. [ ]: non-standard residue; d: D form. Phe(4-NO2) = N[C@@H](Cc1ccc([N+](=O)[O-])cc1)C(=O)O; Phe(4-Cl) = N[C@@H](Cc1ccc(Cl)cc1)C(=O)O; Phe(4-NH2) = Nc1ccc(C[C@H](N)C(=O)O)cc1

Key:
NK-1 receptor = molecular target: T1, NK-1 receptor (Cavia porcellus, UniProt P30547); assay: NK-1 receptor binding (125I-Bolton-Hunter substance P) in guinea pig lung membranes; conditions: 0.1 nM 125I-Bolton-Hunter Lys-3 substance P, mean ± S.E.M.
T1 construct: tissue Keystone Biologicals, Cleveland, OH; host or cells: guinea pig lung
T1 sequence (P30547 whole entry): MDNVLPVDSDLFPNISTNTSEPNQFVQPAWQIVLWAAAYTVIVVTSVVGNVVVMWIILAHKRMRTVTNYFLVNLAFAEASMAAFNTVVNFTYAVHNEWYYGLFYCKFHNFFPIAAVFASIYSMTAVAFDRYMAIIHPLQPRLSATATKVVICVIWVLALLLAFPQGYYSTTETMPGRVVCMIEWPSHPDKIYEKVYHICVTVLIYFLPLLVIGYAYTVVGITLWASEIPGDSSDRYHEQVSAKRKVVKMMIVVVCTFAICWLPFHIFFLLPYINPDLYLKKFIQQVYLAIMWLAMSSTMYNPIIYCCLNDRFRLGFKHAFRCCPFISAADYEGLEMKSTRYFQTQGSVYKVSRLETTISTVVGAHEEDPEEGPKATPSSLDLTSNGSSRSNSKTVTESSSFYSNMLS
Protocol: (§1) Receptor binding assays were performed in crude tissue membranes. The NK-1 receptor binding affinity of proposed tachykinin antagonists was evaluated in guinea pig lungs (Keystone Biologicals, Cleveland, OH, kept frozen at -80° C. until use). Affinity for the NK-2 receptor was evaluated in HSKR-1 cells which are mouse 3T3 fibroblasts expressing the human jejunal NK-2 receptor. Tissues or cells were homogenized with a Polytron in 15 volumes of 50 mM Tris-HCl buffer (pH 7.4, 4° C.) containing 120 mM NaCl and 5 mM KCl and centrifuged at 48,000×g for 12 min. at 4° C. The pellet was resuspended in 15 volumes of 50 mM Tris-HCl buffer containing 10 mM EDTA and 300 mM KCl then set on ice for 30 min. The suspension was cetrifuged as above and the pellet washed by resuspension and cetrifugation two additional times in 50 mM Tris-HCl buffer (pH 7.4, 4° C.). The final pellet was resuspended in a concentration of 20 mg/ml in incubation buffer then kept at room temperature for at least 15 min prior to use. Receptor binding was initiated by addition of 250 μl membrane preparation (final protein concentration; lungs=286 μg/tube, HSKR-1 cells=100 μg/tube) in duplicate to 0.1 nM of the following radioligands: for NK-1 receptor assays, ^125 I-Bolton-Hunter Lys-3 labeled substance P (New England Nuclear, specific activity, 2200 Ci/mmol); for NK-2 receptor assays, ^125 iodohistidyl-1-neurokinin A (Amersham, specific activity, 2000 Ci/mmol) in a final volume of 500 μl of buffer containing 50 mM Tris-HCl (pH 7.4 at room temperature), 0.1% bovine serum albumin, 2 mM MnCl2, 40 μg/ml bacitracin, 4 μg/ml leupeptin and chymostatin, 1 μM thiorphan and various doses of the tachykinin antagonists. Incubations were performed at room temperature for 90 min (NK-1 receptor assays) or 2 hr (NK-2 receptor assays); binding was terminated by addition of 50 mM Tris-HCl buffer (pH 7.4, 4° C.) and filtration under vacuum through GF/B filters presoaked with 0.1% polyethyleneimine (NK-1 receptor assays) or 0.5% bovine serum albumin (NK-2 receptor assays). Nonspecific binding was defined as binding in the presence of 1 μM substance P (NK-1 receptor assays) or neurokinin A (NK-2 receptor assays) (Peptides International, Inc., Louisville, Ky.). Specific binding was calculated by subtracting nonspecific binding from total binding and corresponded to 70-90% of total binding. Data were analyzed and IC50 values generated by nonlinear regression using an iterative curve fitting program (GraphPAD Inplot, San Diego, Calif.). Protein was determined by the method of Lowry.

[1] = molecular target: T2, human jejunal NK-2 receptor (Homo sapiens, UniProt P21452); assay: NK-2 receptor binding (125I-neurokinin A) in HSKR-1 cell membranes; conditions: HSKR-1 cells (mouse 3T3 fibroblasts expressing human jejunal NK-2 receptor); 0.1 nM 125I-iodohistidyl-1-neurokinin A; mean ± S.E.M.
T2 construct: expressed in transfected cells; host or cells: HSKR-1 (mouse 3T3 fibroblasts)
T2 sequence (P21452 1-398): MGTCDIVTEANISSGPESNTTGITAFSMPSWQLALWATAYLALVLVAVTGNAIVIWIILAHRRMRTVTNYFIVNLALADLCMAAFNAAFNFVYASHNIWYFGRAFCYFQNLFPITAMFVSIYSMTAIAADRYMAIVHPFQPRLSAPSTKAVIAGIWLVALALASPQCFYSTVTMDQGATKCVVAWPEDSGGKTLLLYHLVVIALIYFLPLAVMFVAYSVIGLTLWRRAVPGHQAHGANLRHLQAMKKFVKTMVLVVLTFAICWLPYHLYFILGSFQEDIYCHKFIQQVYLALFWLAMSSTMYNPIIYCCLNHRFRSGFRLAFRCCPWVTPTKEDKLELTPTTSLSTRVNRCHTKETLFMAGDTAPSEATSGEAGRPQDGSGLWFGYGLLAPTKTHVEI
Protocol: as §1

Row | SMILES | IC50 (NK-1 receptor) | IC50 [1]
1 | N=C(N)NCCC[C@@H]1NC(=O)[C@@H]2CCCN2C(=O)[C@@H](Cc2ccccc2)NC(=O)[C@H](Cc2ccccc2)NC(=O)CNC(=O)[C@H](Cc2ccccc2)NC1=O [cyclo[Phe--phe--Pro--Arg--Phe--Gly], cyclo[Phe-phe-Pro-Arg-Phe-Gly]] (cyclo(FGF[dF]PR)) | 9310 ± 2070 nM | 674 ± 57 nM
2 | CC(C)C[C@@H]1NC(=O)[C@@H](Cc2c[nH]c3ccccc23)NC(=O)[C@H](Cc2ccc(O)cc2)NC(=O)[C@H](Cc2c[nH]c3ccccc23)NC(=O)CNC(=O)[C@H](CCCNC(=N)N)NC1=O [cyclo[Tyr--trp--Leu--Arg--Gly--Trp], cyclo[Tyr-trp-Leu-Arg-Gly-Trp]] (cyclo(GWY[dW]LR)) | – | 360 ± 21 nM
3 | CC(C)C[C@@H]1NC(=O)[C@@H](Cc2c[nH]c3ccccc23)NC(=O)[C@H](Cc2ccc(O)cc2)NC(=O)[C@@H](C)NC(=O)[C@H](Cc2c[nH]c3ccccc23)NC(=O)[C@H](CCCNC(=N)N)NC1=O [cyclo[Tyr--trp--Leu--Arg--Trp--ala]] (cyclo(LRW[dA]Y[dW])) | – | 7.99 ± 1.02 nM
4 | CC(C)C[C@@H]1NC(=O)CNC(=O)[C@H](Cc2c[nH]c3ccccc23)NC(=O)[C@H](CCCNC(=N)N)NC(=O)[C@H](CC(C)C)NC(=O)CNC(=O)[C@H](Cc2c[nH]c3ccccc23)NC(=O)[C@H](CCCNC(=N)N)NC1=O [cyclo[Leu-Arg-Trp-Gly-Leu-Arg-Trp-Gly]] (cyclo(GLRWGLRW)) | – | 768 ± 75 nM
5 | CC(C)C[C@@H]1NC(=O)[C@H](Cc2c[nH]c3ccccc23)NC(=O)[C@H](Cc2ccc(O)cc2)NC(=O)CNC(=O)[C@H](Cc2c[nH]c3ccccc23)NC(=O)[C@H](CCCNC(=N)N)NC1=O [cyclo[Tyr--Trp--Leu--Arg--Trp--Gly]] (cyclo(GYWLRW)) | 10000 nM | 305 ± 31 nM
6 | C[C@@H]1NC(=O)[C@@H](Cc2c[nH]c3ccccc23)NC(=O)[C@H](Cc2ccc(O)cc2)NC(=O)CNC(=O)[C@H](Cc2c[nH]c3ccccc23)NC(=O)[C@H](CCCNC(=N)N)NC1=O [cyclo[Tyr--trp--Ala--Arg--Trp--Gly], cyclo[Tyr-trp-Ala-Arg-Trp-Gly]] (cyclo(ARWGY[dW])) | – | 56.7 ± 5.45 nM
7 | CC(C)C[C@@H]1NC(=O)[C@@H](Cc2c[nH]c3ccccc23)NC(=O)[C@H](Cc2ccc(O)cc2)NC(=O)CNC(=O)[C@H](Cc2ccc(O)cc2)NC(=O)[C@H](CCCNC(=N)N)NC1=O [cyclo[Tyr--trp--Leu--Arg--Tyr--Gly], cyclo[Tyr-trp-Leu-Arg-Tyr-Gly]] (cyclo(GY[dW]LRY)) | > 10000 nM | 18.9 ± 1.58 nM
8 | CC(C)C[C@@H]1NC(=O)[C@@H](Cc2c[nH]c3ccccc23)NC(=O)[C@H](Cc2ccc(O)cc2)NC(=O)[C@H](C)NC(=O)[C@H](Cc2c[nH]c3ccccc23)NC(=O)[C@H](CCCNC(=N)N)NC1=O [cyclo[Tyr--trp--Leu--Arg--Trp--Ala], cyclo[Tyr-trp-Leu-Arg-Trp-Ala]] (cyclo(AY[dW]LRW)) | – | 9.9 ± 0.9 nM
9 | CC(C)C[C@@H]1NC(=O)[C@@H](Cc2c[nH]c3ccccc23)NC(=O)[C@@H](Cc2ccc(O)cc2)NC(=O)CNC(=O)[C@H](Cc2c[nH]c3ccccc23)NC(=O)[C@H](CCCNC(=N)N)NC1=O [cyclo[tyr--trp--Leu--Arg--Trp--Gly]] (cyclo(G[dY][dW]LRW)) | > 10000 nM | 4.97 ± 0.42 nM
10 | CC(C)C[C@@H]1NC(=O)[C@@H](Cc2c[nH]c3ccccc23)NC(=O)[C@H](Cc2ccc(O)cc2)NC(=O)CNC(=O)[C@H](Cc2ccc([N+](=O)[O-])cc2)NC(=O)[C@H](CCCNC(=N)N)NC1=O [cyclo[Tyr-trp-Leu-Arg-(p-NO2 -Phe)-Gly]] (cyclo(GY[dW]LR[Phe(4-NO2)])) | > 10000 nM | 11.7 ± 0.44 nM
11 | CC(C)C[C@@H]1NC(=O)[C@H](CCC(N)=O)NC(=O)[C@@H](Cc2ccc(O)cc2)NC(=O)CNC(=O)[C@H](Cc2c[nH]c3ccccc23)NC(=O)[C@H](CCCNC(=N)N)NC1=O [cyclo[tyr--Gln--Leu--Arg--Trp--Gly], cyclo[tyr-Gln-Leu-Arg-Trp-Gly]] (cyclo(G[dY]QLRW)) | – | 407 ± 52 nM
12 | N=C(N)NCCC[C@@H]1NC(=O)[C@@H]2CCCN2C(=O)[C@@H](Cc2c[nH]c3ccccc23)NC(=O)[C@H](Cc2ccc(O)cc2)NC(=O)CNC(=O)[C@H](Cc2c[nH]c3ccccc23)NC1=O [cyclo[Tyr--trp--Pro--Arg--Trp--Gly], cyclo[Tyr-trp-Pro-Arg-Trp-Gly]] (cyclo(GY[dW]PRW)) | > 10000 nM | 5.13 ± 0.36 nM
13 | CC(C)C[C@@H]1NC(=O)[C@@H](Cc2c[nH]c3ccccc23)NC(=O)[C@H](Cc2ccc(O)cc2)NC(=O)[C@H](C)NC(=O)[C@H](Cc2ccc(O)cc2)NC(=O)[C@H](CCCNC(=N)N)NC1=O [cyclo[Tyr--trp--Leu--Arg--Tyr--Ala], cyclo[Tyr-trp-Leu-Arg-Tyr-Ala]] (cyclo(AY[dW]LRY)) | – | 206 ± 15 nM

Continued by falling IC50 [1], values first:

Row | IC50 (NK-1 receptor) | IC50 [1] | SMILES
14 | > 10000 nM | 193 ± 11.5 nM | CC(C)C[C@@H]1NC(=O)[C@@H](Cc2c[nH]c3ccccc23)NC(=O)[C@H](Cc2ccc(O)cc2)NC(=O)CNC(=O)[C@@H](Cc2c[nH]c3ccccc23)NC(=O)[C@H](CCCNC(=N)N)NC1=O [cyclo[Tyr--trp--Leu--Arg--trp--Gly]] (cyclo(GY[dW]LR[dW]))
15 | 5170 ± 507 nM | 30 ± 2.52 nM | CC(C)C[C@@H]1NC(=O)[C@@H](Cc2c[nH]c3ccccc23)NC(=O)[C@H](Cc2ccc(O)cc2)NC(=O)[C@@H]2CCCN2C(=O)[C@H](Cc2c[nH]c3ccccc23)NC(=O)[C@H](CCCNC(=N)N)NC1=O [cyclo[Tyr--trp--Leu--Arg--Trp--Pro], cyclo[Tyr-trp-Leu-Arg-Trp-Pro]] (cyclo(LRWPY[dW]))
16 | > 10000 nM | 20.2 ± 2.03 nM | CC(C)C[C@@H]1NC(=O)[C@@H](Cc2c[nH]c3ccccc23)NC(=O)[C@H](Cc2ccc(O)cc2)NC(=O)CNC(=O)[C@H](Cc2ccc(N)cc2)NC(=O)[C@H](CCCNC(=N)N)NC1=O [cyclo[Tyr-trp-Leu-Arg-(p-NH2 -Phe)-Gly]] (cyclo(GY[dW]LR[Phe(4-NH2)]))
17 | ~10000 nM | 13.3 ± 1.31 nM | CC(C)C[C@@H]1NC(=O)[C@@H](Cc2c[nH]c3ccccc23)NC(=O)[C@H](Cc2ccc(O)cc2)NC(=O)CNC(=O)[C@H](Cc2ccc(Cl)cc2)NC(=O)[C@H](CCCNC(=N)N)NC1=O [cyclo[Tyr-trp-Leu-Arg-(p-Cl-Phe)-Gly]] (cyclo(GY[dW]LR[Phe(4-Cl)]))
18 | 4830 ± 297 nM | 4.7 ± 0.15 nM | CC(C)C[C@@H]1NC(=O)[C@@H](Cc2c[nH]c3ccccc23)NC(=O)[C@H](Cc2c[nH]c3ccccc23)NC(=O)CNC(=O)[C@H](Cc2c[nH]c3ccccc23)NC(=O)[C@H](CCCNC(=N)N)NC1=O [cyclo[Trp--trp--Leu--Arg--Trp--Gly], cyclo[Trp-trp-Leu-Arg-Trp-Gly]] (cyclo(GW[dW]LRW))
